Results reported in patent US20240011070A1, “METHODS AND COMPOSITIONS FOR PROTEASE REPORTER ASSAYS AND MODULATORS” (712 North Inc., priority 2020, published 2024).
Entries after “also recorded” stand apart in the source; their conditions may differ. Like-named read-outs stand apart in the source and are kept apart here.

How the values were obtained:
OMA1 protease [1] = molecular target: T1, OMA1 protease (Homo sapiens, UniProt Q96E52); test: Reporter hydrolysis in Hek293T reporter cells by Western blot; assay type: cell-based; design: The OMA 1 enzyme is dormant under physiological cell culture conditions in these cells; endogenous in cells; conditions: for Luke-S1 reporter cleavage in Western blots / Luke-TEV reporter cleavage in Western blots: 3 μM CCCP or 100 nM valinomycin
T1 sequence (Q96E52 144-524): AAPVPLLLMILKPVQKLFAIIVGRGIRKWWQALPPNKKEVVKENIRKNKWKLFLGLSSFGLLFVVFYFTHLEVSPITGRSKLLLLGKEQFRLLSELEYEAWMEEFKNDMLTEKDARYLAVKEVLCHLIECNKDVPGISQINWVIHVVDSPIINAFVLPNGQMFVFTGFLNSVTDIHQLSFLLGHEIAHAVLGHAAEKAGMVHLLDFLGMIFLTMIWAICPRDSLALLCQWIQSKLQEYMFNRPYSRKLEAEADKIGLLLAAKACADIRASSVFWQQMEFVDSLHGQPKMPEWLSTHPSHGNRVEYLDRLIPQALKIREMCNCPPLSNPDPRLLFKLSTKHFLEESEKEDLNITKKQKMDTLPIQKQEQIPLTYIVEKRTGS
Experimental: For this example, transfected cells were selected by puromycin. […] […] If reporter #15 indeed is cleaved by OMA1, then phenanthroline should prevent this at least to a certain extend by inhibiting OMA1 and accordingly preserving the signal. Hek293T cells were transfected with reporter gene #15 as described in the preceding example. After 24 hours, the transfected cells were incubated with 500 μM phenanthroline in OptiMEM. After 1 hour of pretreatment, CCCP in OptiMEM/phenanthroline was added to a final concentration of 10 μM CCCP and cells incubated for another 30 minutes at 37° C. After 30 minutes, the medium was replaced with furimazine (1:100 in OptiMEM), and bioluminescence measured as described in Example 1.
(§1) OPA1 hydrolysis can be monitored by Western blotting. […] The predicted size of full-length Luke-S1 is 31.8 kDa.

L-OPA1 = test: OPA1 hydrolysis in Hek293T cells by Western blot; assay type: cell-based; conditions: 30 minutes
Text: as §1

OMA1 protease [2] = molecular target: T1, OMA1 protease; test: Rep #01 luciferase reporter assay in Hek293T cells; conditions: for bioluminescence of reporter #01 (mitochondrial toxicity): Hek293T cells exposed 30 minutes
Text: Example 1 provides a nonlimiting example of generation and use of a reporter of present invention and illustrates its function. To this end, generation and use of reporter gene #01 (SEQ ID NO: 01) and reporter gene #15 (SEQ ID NO: 15) are described and their function compared to each other. The general design of a reporter of present invention is illustrated in FIG. 1A and its working principle in FIG. 1B. A reporter in general, and reporter gene #01 and reporter gene #15 in particular, can be generated as follows. DNA sequences of a reporter may be codon-optimized in silico or by any other way for expression in a suitable host. DNA sequences of reporter genes #01 and #15 were codon-optimized for expression in humans (SEQ ID NO: 02 and SEQ ID NO: 16, respectively). The (optimized) sequences were synthesized and cloned into a pcDNA3.1 expression vector under the control of a CMV promotor (see FIG. 1 for an illustration of such vector). Of course, an expression system and a host should match for best results. The host in this example were Hek293T cells, which were maintained under standard culture conditions in DMEM with 10% Fetal Bovine Serum and 1% Pen/Strep. For an experiment, Hek293T cells were seeded in opaque white tissue-culture treated 96-well plates at 80% confluency and transfected with vectors carrying reporter gene #01 and reporter gene #15 and 24 hours later incubated for 30 minutes at 37° C. in OptiMEM or in OptiMEM with 10 μM CCCP. After 30 minutes, the OptiMEM cell-culture media was replaced with luciferase substrate (furimazine, Promega) diluted 1:100 in OptiMEM, and bioluminescence was measured with a Fluoroskan Ascent FL (Thermo Scientific) using a 517 nm single-pass filter and 200 milliseconds integration time. […]
Example 5 illustrates how mitochondrial toxicity can be measured with reporter and assays of present invention. […] Hek293T cells expressing reporter #01 and #15 were exposed to CCCP, tipranavir and sorafenib (in OptiMEM) for 30 minutes before the medium was replaced with furimazine (1:100), and bioluminescence measured.

OMA1 protease [3] = molecular target: T1, OMA1 protease; test: cell-based
Text: Example 1 provides a nonlimiting example of generation and use of a reporter of present invention and illustrates its function. To this end, generation and use of reporter gene #01 (SEQ ID NO: 01) and reporter gene #15 (SEQ ID NO: 15) are described and their function compared to each other. The general design of a reporter of present invention is illustrated in FIG. 1A and its working principle in FIG. 1B. A reporter in general, and reporter gene #01 and reporter gene #15 in particular, can be generated as follows. DNA sequences of a reporter may be codon-optimized in silico or by any other way for expression in a suitable host. DNA sequences of reporter genes #01 and #15 were codon-optimized for expression in humans (SEQ ID NO: 02 and SEQ ID NO: 16, respectively). The (optimized) sequences were synthesized and cloned into a pcDNA3.1 expression vector under the control of a CMV promotor (see FIG. 1 for an illustration of such vector). Of course, an expression system and a host should match for best results. The host in this example were Hek293T cells, which were maintained under standard culture conditions in DMEM with 10% Fetal Bovine Serum and 1% Pen/Strep. For an experiment, Hek293T cells were seeded in opaque white tissue-culture treated 96-well plates at 80% confluency and transfected with vectors carrying reporter gene #01 and reporter gene #15 and 24 hours later incubated for 30 minutes at 37° C. in OptiMEM or in OptiMEM with 10 μM CCCP. After 30 minutes, the OptiMEM cell-culture media was replaced with luciferase substrate (furimazine, Promega) diluted 1:100 in OptiMEM, and bioluminescence was measured with a Fluoroskan Ascent FL (Thermo Scientific) using a 517 nm single-pass filter and 200 milliseconds integration time. […] Reporter #01 comprises a large part of OPA1's amino-terminus as mitochondrial targeting sequence, which is cleaved by the mitochondrial processing peptidase upon mitochondrial import (see Example 2). Reporter #15 was initially envisioned as a control for reporter #01. Reporter #15 therefore lacks the first 66 amino acids of reporter #01 believed to be essential for mitochondrial import.
Example 5 illustrates how mitochondrial toxicity can be measured with reporter and assays of present invention. The OMA1-OPA1 pathway basically serves as a “canary-in-the-coalmine” for a mitochondrial deterioration. […] Hek293T cells expressing reporter #01 and #15 were exposed to CCCP, tipranavir and sorafenib (in OptiMEM) for 30 minutes before the medium was replaced with furimazine (1:100), and bioluminescence measured.

OMA1 protease [4] = molecular target: T1, OMA1 protease; test: Rep #15 / Luke-S1 assay for OMA1 inhibitors (preincubation with test compound, then OMA1 activator); assay type: cell-based; design: The OMA 1 enzyme is dormant under physiological cell culture conditions in these cells; endogenous in cells; conditions: 500 μM phenanthroline 1 hour, then 10 μM CCCP 30 minutes
Experimental: Example 2 refers to FIG. 4 and illustrates hydrolysis of reporter #01 and reporter #15. For this example, transfected cells were selected by puromycin. Reporter cells were exposed for 30 minutes to 10 μM CCCP before being harvested in RIPA buffer and subjected to 12% SDS-PAGE followed by Western-blotting. […] Full-length reporter #01 has a predicted size of 39.6 kDa but was not detected in Western blots. […] At the same time, reporter #15 is not processed upon import, but migrated at its expected size of 31.9 kDa. (Example 7 establishes mitochondrial import by showing co-migration of reporter #15 with OPA1 and OMA1 in mitochondria-enriched fractions.) Reporter #15 appears to be more abundant and stable, which may explain its better performance. […] This provides additional evidence that reporter #15 is indeed localized in mitochondria where it is recognized and hydrolyzed by OMA1. […] Therefore, phenanthroline was used as a positive control in the reporter assay. If reporter #15 indeed is cleaved by OMA1, then phenanthroline should prevent this at least to a certain extend by inhibiting OMA1 and accordingly preserving the signal. Hek293T cells were transfected with reporter gene #15 as described in the preceding example. […] After 30 minutes, the medium was replaced with furimazine (1:100 in OptiMEM), and bioluminescence measured as described in Example 1. […]

NanoLuc luciferase = molecular target: T2, NanoLuc luciferase (Oplophorus gracilirostris, UniProt Q9GV45, A31E/A60N/A81I/F95D/I117V/K70R/L54V/L99Q/M102K/N193R/P142E/Q151K/Q38R/Q45L/V71I/Y165I); test: Luke (native NanoLuc) control cell assay in Hek293T cells; assay type: cell-based
T2 construct: expressed in transfected cells; host or cells: 'Luke' cells
Text: Example 6 refers to FIG. 11 and introduces the Luke-S1 reporter cell line, which is based on a modified NanoLuc complementation system (Dixon, et al. ACS Chem Biol (2016) 11(2): 400-8). […] Luke-S1 is targeted to the mitochondrial inner membrane by an 86 amino acid portion of OPA1's c-terminus with the protein sequence SEQ ID NO: 27 and the DNA sequence SEQ ID NO:28. A reporter in which the S1 site was replaced by a TEV cleavage site (referred to as ‘Luke-TEV’) and the native NanoLuc enzyme (referred to as ‘Luke’) served as controls.

OMA1 protease [5] = molecular target: OMA1 protease (Mus musculus, UniProt Q9D8H7); conditions: Neuro2A cells
Text: In this example, the S1-cleavage site of reporter #15 was replaced with a TEV-cleavage site (see also Example 6). Neuro2A cells were transfected with reporter #15-S1 and reporter #15-TEV and selected by puromycin. […] FIG. 7 provides an overview of the arrangement of elements of different reporter genes, which comprise inter alia the amino acid sequences of SEQ ID NO: 01 (Rep #01), SEQ ID NO: 03 (Rep #04), SEQ ID NO: 09 (Rep #08), SEQ ID NO: 13 (Rep #10), and SEQ ID NO: 15 (Rep #15).

OMA1 protease [6] = molecular target: T1, OMA1 protease; test: Luke-TEV (TEV site instead of S1) reporter assay in Hek293T cells; assay type: cell-based; design: The OMA 1 enzyme is dormant under physiological cell culture conditions in these cells; endogenous in cells

Chain of OMA1 protease (Mus musculus, UniProt Q9D8H7) (Q9D8H7 140-521): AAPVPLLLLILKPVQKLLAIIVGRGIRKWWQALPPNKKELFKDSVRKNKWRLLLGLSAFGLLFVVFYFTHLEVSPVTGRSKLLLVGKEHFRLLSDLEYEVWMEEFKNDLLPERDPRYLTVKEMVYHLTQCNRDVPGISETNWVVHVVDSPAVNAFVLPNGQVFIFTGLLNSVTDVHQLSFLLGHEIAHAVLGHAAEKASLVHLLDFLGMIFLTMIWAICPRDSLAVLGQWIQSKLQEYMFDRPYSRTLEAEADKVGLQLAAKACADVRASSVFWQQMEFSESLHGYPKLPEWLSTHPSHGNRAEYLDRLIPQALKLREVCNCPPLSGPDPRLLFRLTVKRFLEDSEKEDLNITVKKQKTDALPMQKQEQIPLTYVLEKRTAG
T2 sequence (Q9GV45 with tags, fused parts or gaps with the stated changes): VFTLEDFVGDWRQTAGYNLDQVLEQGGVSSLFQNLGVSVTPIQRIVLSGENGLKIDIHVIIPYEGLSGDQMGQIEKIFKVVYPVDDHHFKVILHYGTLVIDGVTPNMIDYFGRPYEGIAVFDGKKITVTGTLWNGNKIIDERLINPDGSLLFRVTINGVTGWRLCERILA

N#CC(C#N)=NNc1cccc(Cl)c1 [CCCP, carbonyl cyanide m-chlorophenyl hydrazone]
Luke-S1 reporter cleavage in Western blots (OMA1 protease [1]): induced cleavage of the Luke-S1 reporter
Luke-TEV reporter cleavage in Western blots (OMA1 protease [1]): cleaved
processing of reporter #01 in Western blot (OMA1 protease [1]; 10 μM CCCP, 30 minutes): led to processing
processing of reporter #15 in Western blot (OMA1 protease [1]; 10 μM CCCP, 30 minutes): led to processing
OPA1 hydrolysis in Western blots (L-OPA1; 3 μM CCCP): complete disappearance of L-OPA1 isoforms; also recorded: complete L-OPA1 proteolysis
bioluminescence signal of reporter #01 (OMA1 protease [2]; 10 μM CCCP, 30 minutes): significantly reduced
bioluminescence of reporter #01 (mitochondrial toxicity) (OMA1 protease [2]): significantly reduced bioluminescence

COC1=CC(=O)O[C@@H](/C=C/c2ccccc2)C1 [kavain, Kavain]
EC50 (OMA1 protease [3]): 14 µM

c1cnc2c(c1)ccc1cccnc12 [phenanthroline]
bioluminescence signal of reporter #15 after pretreatment (OMA1 protease [4]): prevented reporter #15 deactivation and maintained the bioluminescence signal; also recorded: largely preserved

CCC[C@@]1(CCc2ccccc2)CC(O)=C([C@H](CC)c2cccc(NS(=O)(=O)c3ccc(C(F)(F)F)cn3)c2)C(=O)O1 [tipranavir]
EC50 (OMA1 protease [3]): 9 µM
bioluminescence of reporter #01 (mitochondrial toxicity) (OMA1 protease [2]): deactivated; also recorded: significantly reduced bioluminescence

CC(C)[C@@H]1NC(=O)[C@H](C)OC(=O)[C@@H](C(C)C)NC(=O)[C@@H](C(C)C)OC(=O)[C@H](C(C)C)NC(=O)[C@H](C)OC(=O)[C@@H](C(C)C)NC(=O)[C@@H](C(C)C)OC(=O)[C@H](C(C)C)NC(=O)[C@H](C)OC(=O)[C@@H](C(C)C)NC(=O)[C@@H](C(C)C)OC1=O [valinomycin]
Luke-S1 reporter cleavage in Western blots (OMA1 protease [1]): induced cleavage of the Luke-S1 reporter
Luke-TEV reporter cleavage in Western blots (OMA1 protease [1]): cleaved
EC50 (OMA1 protease [3]): 0.0176 µM
Luke-S1 signal, cells transfected with OMA1 siRNA (OMA1 protease [3]; 100 nM valinomycin, 30 minutes): no significant signal reduction
Luke-S1 signal, cells transfected with control siRNA (OMA1 protease [3]; 100 nM valinomycin, 30 minutes): significant signal reduction
real-time bioluminescence versus cells without valinomycin (OMA1 protease [3]; Luke-S1, 100 nM valinomycin added with luciferase substrate, 25 minutes): marked signal reduction from the start of the measurement
signal intensity normalized to untreated cells (OMA1 protease [3]; valinomycin treated controls of the cancer drug screen, untreated = 100%): 18.5%
real-time bioluminescence versus cells without valinomycin (NanoLuc luciferase; Luke, 100 nM valinomycin added with luciferase substrate, after 10 minutes): no notable differences
effect on Luke bioluminescence (NanoLuc luciferase; dose-response, 30 minutes): no effects
OPA1 hydrolysis in Western blots (L-OPA1; 0.1 μM (100 nM) valinomycin): sufficed for OPA1 cleavage; also recorded: complete L-OPA1 proteolysis
half maximal effective concentration (EC50) (OMA1 protease [5]; reporter #15-S1, 30 minutes): low nanomolar range
half maximal effective concentration (EC50) (OMA1 protease [5]; reporter #15-TEV, 30 minutes): low nanomolar range
real-time bioluminescence versus cells without valinomycin (OMA1 protease [6]; Luke-TEV, 100 nM valinomycin added with luciferase substrate): much smaller difference
effect on Luke-TEV signal (OMA1 protease [6]; dose-response, 30 minutes): only a minor signal reduction
